US11926612B2, “Heterocyclic apelin receptor (APJ) agonists and uses thereof” (Research Triangle Institute, priority 2016, dated 2024)

What follows are compounds tested against T1, apelin receptor (APJ) (Homo sapiens, UniProt P35414) (assay: in vitro activity as apelin agonists (methods of Giddings et al.; Apelin-13 positive control)). Settings: apelin agonist activity, average; read-out: EC50 (nM) Ave.
T1 sequence (P35414 1-380): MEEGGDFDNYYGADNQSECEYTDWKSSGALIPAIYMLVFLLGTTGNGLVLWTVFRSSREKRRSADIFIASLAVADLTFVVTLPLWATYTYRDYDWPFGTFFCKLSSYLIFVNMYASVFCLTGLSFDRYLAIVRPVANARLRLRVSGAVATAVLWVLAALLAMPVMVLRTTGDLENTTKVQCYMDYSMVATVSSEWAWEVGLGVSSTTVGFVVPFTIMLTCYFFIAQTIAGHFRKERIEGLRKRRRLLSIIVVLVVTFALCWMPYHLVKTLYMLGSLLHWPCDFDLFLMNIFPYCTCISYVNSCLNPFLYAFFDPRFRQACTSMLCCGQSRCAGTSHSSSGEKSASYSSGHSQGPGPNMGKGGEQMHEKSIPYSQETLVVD
Type: cell-based
Description: The compounds above were studied for their in vitro activity as apelin agonists using the methods described by Giddings et al. Giddings et al., 2010 Int J High Thro Screen. 1:39-47, the contents of which are hereby incorporated by reference in its entirety. The methods described in Giddings et al. were used as described and Apelin-13 was a positive control.
For `O=C(C[C@H](CCN1CCCCC1)NC(=O)c1nc(C2CCCC2)n(-c2ccccc2C(F)(F)F)n1)NC1CCC1` [compound 444, (3S)-N-cyclobutyl-3-({5-cyclopentyl-1-[2-(trifluoromethyl)phenyl]-1H-1,2,4-triazol-3-yl}formamido)-5-(piperidin-1-yl)pentanamide], the EC50 was 40 nM. For `O=C(C[C@H](CCN1CCCCC1)NC(=O)c1nc(-c2ccccc2C(F)(F)F)n(C2CCCC2)n1)NC1CCC1` [compound 446, (3S)-N-cyclobutyl-3-({1-cyclopentyl-5-[2-(trifluoromethyl)phenyl]-1H-1,2,4-triazol-3-yl}formamido)-5-(piperidin-1-yl)pentanamide], the EC50 was 310 nM. Work on `O=C(C[C@H](CCN1CCCC(F)(F)C1)NC(=O)c1nc(-c2ccccc2C(F)(F)F)n(C2CCCC2)n1)NC1CCC1` [compound 453, (3S)-N-cyclobutyl-3-({1-cyclopentyl-5-[2-(trifluoromethyl)phenyl]-1H-1,2,4-triazol-3-yl}formamido)-5-(3,3-difluoropiperidin-1-yl)pentanamide] yielded an EC50 of 9 nM. With `O=C(C[C@H](CCN1CCCC(F)(F)C1)NC(=O)c1nc(C2CCCC2)n(-c2ccccc2C(F)(F)F)n1)NC1CCC1` [compound 454, (3S)-N-cyclobutyl-3-({5-cyclopentyl-1-[2-(trifluoromethyl)phenyl]-1H-1,2,4-triazol-3-yl}formamido)-5-(3,3-difluoropiperidin-1-yl)pentanamide] the EC50 was 8.3 nM. For `CN(C(=O)C[C@H](CCN1CCCC(F)(F)C1)NC(=O)c1nc(C2CCCC2)n(-c2ccccc2C(F)(F)F)n1)c1nccs1` [compound 455, (3S)-3-({5-cyclopentyl-1-[2-(trifluoromethyl)phenyl]-1H-1,2,4-triazol-3-yl}formamido)-5-(3,3-difluoropiperidin-1-yl)-N-methyl-N-(1,3-thiazol-2-yl)pentanamide], the EC50 was 22 nM. `CN(C(=O)C[C@H](CCN1CCCC(F)(F)C1)NC(=O)c1nc(-c2ccccc2C(F)(F)F)n(C2CCCC2)n1)c1nccs1` [compound 456, (3S)-3-({1-cyclopentyl-5-[2-(trifluoromethyl)phenyl]-1H-1,2,4-triazol-3-yl}formamido)-5-(3,3-difluoropiperidin-1-yl)-N-methyl-N-(1,3-thiazol-2-yl)pentanamide] was tested, and the EC50 was 48 nM. With `O=C(O)C[C@H](CCN1CCCC(F)(F)C1)NC(=O)c1nc(-c2ccccc2C(F)(F)F)n(C2CCCC2)n1` [compound 462, (3S)-3-({1-cyclopentyl-5-[2-(trifluoromethyl)phenyl]-1H-1,2,4-triazol-3-yl}formamido)-5-(3,3-difluoropiperidin-1-yl)pentanoic acid] the EC50 was 384 nM. In the case of `CN(C(=O)C[C@H](CCN1CCCC(F)(F)C1)NC(=O)c1cn(-c2ccccc2C(F)(F)F)c(C2CCCC2)n1)c1nccs1` [compound 473, (3S)-3-({2-cyclopentyl-1-[2-(trifluoromethyl)phenyl]-1H-imidazol-4-yl}formamido)-5-(3,3-difluoropiperidin-1-yl)-N-methyl-N-(1,3-thiazol-2-yl)pentanamide], the EC50 is reported as 46 nM. In the case of `CN(C(=O)C[C@H](CCN1CCCC(F)(F)C1)N(C)C(=O)c1nc(C2CCCC2)n(-c2ccccc2C(F)(F)F)n1)c1nccs1` [compound 474, (3S)-3-(1-{5-cyclopentyl-1-[2-(trifluoromethyl)phenyl]-1H-1,2,4-triazol-3-yl}-N-methylformamido)-5-(3,3-difluoropiperidin-1-yl)-N-methyl-N-(1,3-thiazol-2-yl)pentanamide], the EC50 is reported as 588 nM. Work on `CC(C)Cc1c(-c2ccccc2Cl)nc(C(=O)N[C@@H](CCN2CCCC(F)(F)C2)CC(=O)O)n1C` [compound 476, (3S)-3-{[4-(2-chlorophenyl)-1-methyl-5-(2-methylpropyl)-1H-imidazol-2-yl]formamido}-5-(3,3-difluoropiperidin-1-yl)pentanoic acid] yielded an EC50 of over 10000 nM. Compound `CC(C)Cc1c(-c2ccccc2Cl)nc(C(=O)N[C@@H](CCN2CCCC(F)(F)C2)CC(=O)N(C)c2nccs2)n1C` [compound 477, (3S)-3-{[4-(2-chlorophenyl)-1-methyl-5-(2-methylpropyl)-1H-imidazol-2-yl]formamido}-5-(3,3-difluoropiperidin-1-yl)-N-methyl-N-(1,3-thiazol-2-yl)pentanamide] has an EC50 of over 10000 nM. `CC(C)Cc1c(-c2ccccc2Cl)nc(C(=O)N[C@@H](CCN2CCCC(F)(F)C2)CC(=O)NC2CCC2)n1C` [compound 478, (3S)-3-{[4-(2-chlorophenyl)-1-methyl-5-(2-methylpropyl)-1H-imidazol-2-yl]formamido}-N-cyclobutyl-5-(3,3-difluoropiperidin-1-yl)pentanamide] was tested, and the EC50 was over 10000 nM. In the case of `O=C(O)C[C@H](CCN1CCCC(F)(F)C1)NC(=O)c1nc(-c2ncccc2C(F)(F)F)n(C2CCCC2)n1` [compound 512, (3S)-3-({1-cyclopentyl-5-[3-(trifluoromethyl)pyridin-2-yl]-1H-1,2,4-triazol-3-yl}formamido)-5-(3,3-difluoropiperidin-1-yl)pentanoic acid], the EC50 is reported as 152 nM. `O=C(O)C[C@H](CCN1CCCC(F)(F)C1)NC(=O)c1nc(C2CCCC2)n(-c2cccnc2C(F)(F)F)n1` [compound 513, (3S)-3-({5-cyclopentyl-1-[2-(trifluoromethyl)pyridin-3-yl]-1H-1,2,4-triazol-3-yl}formamido)-5-(3,3-difluoropiperidin-1-yl)pentanoic acid] was tested, and the EC50 was over 10000 nM. `O=C(C[C@H](CCN1CCCC(F)(F)C1)NC(=O)c1nc(C2CCCC2)n(-c2cccnc2C(F)(F)F)n1)NC1CCC1` [compound 531, (3S)-N-cyclobutyl-3-({5-cyclopentyl-1-[2-(trifluoromethyl)pyridin-3-yl]-1H-1,2,4-triazol-3-yl}formamido)-5-(3,3-difluoropiperidin-1-yl)pentanamide] gave an EC50 of 323 nM. `O=C(C[C@H](CCN1CCCC(F)(F)C1)NC(=O)c1nc(-c2cccnc2C(F)(F)F)n(C2CCCC2)n1)NC1CCC1` [compound 532, (3S)-N-cyclobutyl-3-({1-cyclopentyl-5-[2-(trifluoromethyl)pyridin-3-yl]-1H-1,2,4-triazol-3-yl}formamido)-5-(3,3-difluoropiperidin-1-yl)pentanamide] gave an EC50 of 2540 nM. `COCCN(C)C(=O)[C@H](CCc1ccccc1)NC(=O)c1nc(C2CCCC2)n(-c2ccccc2C(F)(F)F)n1` [compound 543, (2S)-2-({5-cyclopentyl-1-[2-(trifluoromethyl)phenyl]-1H-1,2,4-triazol-3-yl}formamido)-N-(2-methoxyethyl)-N-methyl-4-phenylbutanamide] showed an EC50 of 754 nM. With `COCCN(C)C(=O)[C@H](CCc1ccccc1)NC(=O)c1nc(-c2ccccc2C(F)(F)F)n(C2CCCC2)n1` [compound 569, (2S)-2-({1-cyclopentyl-5-[2-(trifluoromethyl)phenyl]-1H-1,2,4-triazol-3-yl}formamido)-N-(2-methoxyethyl)-N-methyl-4-phenylbutanamide] the EC50 was over 10000 nM. With `O=C(O)C[C@H](CCN1CCC(F)(F)C1)NC(=O)c1nc(C2CCCC2)n(-c2ccccc2C(F)(F)F)n1` [compound 586, (3S)-3-({5-cyclopentyl-1-[2-(trifluoromethyl)phenyl]-1H-1,2,4-triazol-3-yl}formamido)-5-(3,3-difluoropyrrolidin-1-yl)pentanoic acid] the EC50 was 74 nM. Work on `O=C(O)C[C@H](CCN1CCCC(F)(F)C1)NC(=O)c1cn(-c2ccccc2C(F)(F)F)c(C2CCCC2)n1` [compound 617, (3S)-3-({2-cyclopentyl-1-[2-(trifluoromethyl)phenyl]-1H-imidazol-4-yl}formamido)-5-(3,3-difluoropiperidin-1-yl)pentanoic acid] yielded an EC50 of 13 nM. `O=C(N[C@@H](CCN1CCCC(F)(F)C1)Cc1nnn[nH]1)c1cn(-c2ccccc2C(F)(F)F)c(C2CCCC2)n1` [compound 620] showed an EC50 of 8 nM.
